Data from patent publication US11331289B2, “Antimicrobial composition” (priority 2017, dated 2022).

What was measured:
[1] = system: Methicillin-Resistant Staphylococcus aureus (MRSA); test: Time-killing curves, conclusion over strains and inocula; type: cell-based; conditions: two inocula, two strains
Text: (§1) The objective of this study is to assess in vitro the time-killing curves of oxyclozanide against four strains of Methicillin-Resistant Staphylococcus from dogs.
(§2) Two Methicillin-Resistant Staphylococcus aureus (MRSA) and two Methicillin-Resistant Staphylococcus pseudintermedius (MRSP) isolated from the clinics have been tested.
(§3) The assessment of time-killing curves has been realized by a broth macrodilution method (Mueller-Hinton II Broth).

[2] = system: Methicillin-Resistant Staphylococcus pseudintermedius (MRSP); test: as above; type: cell-based; conditions: two inocula, two strains
Text: as §1, §2, §3

MRSA 16116 [3] = test: Time-killing curve, inoculum 5.10^5 CFU/ml (MIC 0.5 μg/ml); type: cell-based, Staphylococcus aureus
Procedure: as §1, §2, §3
(§4) Oxyclozanide is diluted in (DMSO) into sterile tubes in order to obtain the following concentrations from 800 to 6.25 μg/ml. Those concentrations and stock standard solution are then diluted (1/10) in Mueller-Hinton II Broth in order to obtain the following concentrations from […] (See Table 2).
(§5) Each operation is performed under sterile conditions. Each working standard solution (10*the final active ingredient concentration) is distributed in tubes (1 ml, for a final volume of 10 ml after addition of 9 ml of inoculum). One tube without active ingredient is used as growth control (Concentration=0).
(§6) Bacterial isolates are sub-cultured from one cryobead on Columbia agar supplemented with 5% of blood. Pure cultures are incubated during 18-24 hours at 37° C. Three to five isolated colonies of similar appearance are selected from a previous culture and transferred into tubes containing 9 ml of Mueller-Hinton II Broth. The broth is incubated during 12-18 hours at 37° C. 0.5 to 1 ml of this broth is inoculated to another Mueller-Hinton II Broth 9 ml tube which is incubated during 3 to 4 hours at 37° C. to reach the exponential growth phase. The bacterial inoculum grown exponential phase is suspended to an optical density of McFarland standard scale 0.5 equivalent to a bacterial density of 10^8 CFU/ml and then adjusted to a concentration of about 5.10^5 CFU/ml as indicated by the guideline CLSI M26-A and to a second inoculum tested: 10^6 CFU/ml.
(§7) 9 ml of bacterial inoculum grown to exponential phase is added to 1 ml of active ingredient (or Mueller Hinton II Broth for the growth control). Tubes are incubated at 35° C. during 24 hours.
(§8) At times 0, 2, 4, 6 and 24 hours, 100 μl of broth of each tube is sampled and diluted in microplates:
(§9) Each well is re-cultured by streaking 10 μl on Columbia agar supplemented with 5% of blood. Plates are incubated at 37° C. during 18-24 hours incubation. Thus, residual bacterial concentrations are determined (CFU/ml). Results are expressed in log10 values of CFU/ml over-time in broth. Due to the procedure used, the minimal bacterial concentration that can be assessed is 10^2 CFU/ml.

MRSA 16116 [4] = test: Time-killing curve, inoculum 10^6 CFU/ml (MIC 0.5 μg/ml); type: cell-based, Staphylococcus aureus
Procedure: as §1, §2, §3, §4, §5, §6, §7, §8, §9

O=C(Nc1cc(Cl)cc(Cl)c1O)c1c(O)c(Cl)cc(Cl)c1Cl [Oxyclozanide] was tested, and the “Concentrations with concentration-dependent bactericidal effect” value [1] was “>= 2 MIC”, the “Concentrations with concentration-dependent bactericidal effect” value [2] was “>= 2 MIC” and the Counting results (MRSA 16116 [3]; 1 MIC, 0 h) was 3.900E+05 CFU/ml. It also gave a Counting results (MRSA 16116 [3]; 1 MIC, 2 h) of 1.700E+06 CFU/ml, a Counting results (MRSA 16116 [3]; 1 MIC, 4 h) of 2.500E+07 CFU/ml and a Counting results (MRSA 16116 [3]; 1 MIC, 6 h) of 1.600E+08 CFU/ml. It also gave a Counting results (MRSA 16116 [3]; 1 MIC, 24 h) of 1.300E+08 CFU/ml, a Counting results (MRSA 16116 [3]; 2 MIC, 0 h) of 3.900E+05 CFU/ml and a Counting results (MRSA 16116 [3]; 2 MIC, 2 h) of 1.200E+05 CFU/ml. The Counting results (MRSA 16116 [3]; 2 MIC, 4 h) was 1.300E+04 CFU/ml, the Counting results (MRSA 16116 [3]; 2 MIC, 6 h) was 1.400E+04 CFU/ml and the Counting results (MRSA 16116 [3]; 2 MIC, 24 h) was 3.500E+06 CFU/ml. It also gave a Counting results (MRSA 16116 [3]; 4 MIC, 0 h) of 3.900E+05 CFU/ml, a Counting results (MRSA 16116 [3]; 4 MIC, 2 h) of 6.000E+03 CFU/ml and a Counting results (MRSA 16116 [3]; 4 MIC, 4 h) of 6.000E+02 CFU/ml. It also gave a Counting results (MRSA 16116 [3]; 4 MIC, 6 h) of 4.000E+02 CFU/ml, a Counting results (MRSA 16116 [3]; 4 MIC, 24 h) of 1.000E+02 CFU/ml and a Counting results (MRSA 16116 [3]; 8 MIC, 0 h) of 3.900E+05 CFU/ml. The Counting results (MRSA 16116 [3]; 8 MIC, 2 h) was 5.000E+02 CFU/ml, the Counting results (MRSA 16116 [3]; 8 MIC, 4 h) was 1.000E+02 CFU/ml and the Counting results (MRSA 16116 [3]; 8 MIC, 6 h) was 1.000E+02 CFU/ml. For the same compound, the Counting results (MRSA 16116 [3]; 8 MIC, 24 h) was 1.000E+02 CFU/ml, the Counting results (MRSA 16116 [3]; 16 MIC, 0 h) was 3.900E+05 CFU/ml and the Counting results (MRSA 16116 [3]; 16 MIC, 2 h) was 3.000E+02 CFU/ml. It also gave a Counting results (MRSA 16116 [3]; 16 MIC, 4 h) of 1.000E+02 CFU/ml, a Counting results (MRSA 16116 [3]; 16 MIC, 6 h) of 3.000E+02 CFU/ml and a Counting results (MRSA 16116 [3]; 16 MIC, 24 h) of 1.000E+02 CFU/ml. For the same compound, the “Time to obtain bactericidal effect at 4 MIC” value (MRSA 16116 [3]; 16116/5.10^5 CFU/ml, >=3 log10 decrease in CFU) was 4 to 6 h, the Counting results (MRSA 16116 [3]; ¼ MIC, 0 h) was 3.900E+05 CFU/ml and the Counting results (MRSA 16116 [3]; ¼ MIC, 2 h) was 2.000E+06 CFU/ml. The Counting results (MRSA 16116 [3]; ¼ MIC, 4 h) was 4.000E+07 CFU/ml, the Counting results (MRSA 16116 [3]; ¼ MIC, 6 h) was 3.000E+08 CFU/ml and the Counting results (MRSA 16116 [3]; ¼ MIC, 24 h) was 1.900E+09 CFU/ml. It also gave a Counting results (MRSA 16116 [3]; ½ MIC, 0 h) of 3.900E+05 CFU/ml, a Counting results (MRSA 16116 [3]; ½ MIC, 2 h) of 1.700E+06 CFU/ml and a Counting results (MRSA 16116 [3]; ½ MIC, 4 h) of 3.000E+07 CFU/ml. It also gave a Counting results (MRSA 16116 [3]; ½ MIC, 6 h) of 1.400E+08 CFU/ml, a Counting results (MRSA 16116 [3]; ½ MIC, 24 h) of 2.600E+08 CFU/ml and a Counting results (MRSA 16116 [4]; 1 MIC, 0 h) of 1.500E+06 CFU/ml. For the same compound, the Counting results (MRSA 16116 [4]; 1 MIC, 2 h) was 3.300E+05 CFU/ml, the Counting results (MRSA 16116 [4]; 1 MIC, 4 h) was 3.900E+05 CFU/ml and the Counting results (MRSA 16116 [4]; 1 MIC, 6 h) was 1.600E+06 CFU/ml. For the same compound, the Counting results (MRSA 16116 [4]; 1 MIC, 24 h) was 2.700E+07 CFU/ml, the Counting results (MRSA 16116 [4]; 2 MIC, 0 h) was 1.500E+06 CFU/ml and the Counting results (MRSA 16116 [4]; 2 MIC, 2 h) was 2.200E+04 CFU/ml. It also gave a Counting results (MRSA 16116 [4]; 2 MIC, 4 h) of 1.400E+03 CFU/ml, a Counting results (MRSA 16116 [4]; 2 MIC, 6 h) of 5.000E+02 CFU/ml and a Counting results (MRSA 16116 [4]; 2 MIC, 24 h) of 5.900E+05 CFU/ml. It also gave a Counting results (MRSA 16116 [4]; 4 MIC, 0 h) of 1.500E+06 CFU/ml, a Counting results (MRSA 16116 [4]; 4 MIC, 2 h) of 2.000E+02 CFU/ml and a Counting results (MRSA 16116 [4]; 4 MIC, 4 h) of 2.000E+02 CFU/ml. It also gave a Counting results (MRSA 16116 [4]; 4 MIC, 6 h) of 1.000E+02 CFU/ml, a Counting results (MRSA 16116 [4]; 4 MIC, 24 h) of 1.000E+02 CFU/ml and a Counting results (MRSA 16116 [4]; 8 MIC, 0 h) of 1.500E+06 CFU/ml. The Counting results (MRSA 16116 [4]; 8 MIC, 2 h) was 1.000E+02 CFU/ml.
